From article PMC4430447 (International journal of pharmaceutics, 2014)
Entries after “also recorded” stand apart in the source; their conditions may differ. Where two headings read alike, the source gives them in different places.

Columns and labels:
[1] = biological target: T1, human NTCP (Homo sapiens, UniProt Q14973); assay: Uptake study on NTCP-HEK293 cells; assay type: cell-based; conditions: for NTCP substrate (in words): uptake in presence versus absence of sodium; for Normalized Jmax: Jmax of compound normalized against Jmax of taurocholate; for Kt: Michaelis-Menten constant of uptake, 5 min, 0-200 μM in HBSS
T1 sequence (Q14973 1-349): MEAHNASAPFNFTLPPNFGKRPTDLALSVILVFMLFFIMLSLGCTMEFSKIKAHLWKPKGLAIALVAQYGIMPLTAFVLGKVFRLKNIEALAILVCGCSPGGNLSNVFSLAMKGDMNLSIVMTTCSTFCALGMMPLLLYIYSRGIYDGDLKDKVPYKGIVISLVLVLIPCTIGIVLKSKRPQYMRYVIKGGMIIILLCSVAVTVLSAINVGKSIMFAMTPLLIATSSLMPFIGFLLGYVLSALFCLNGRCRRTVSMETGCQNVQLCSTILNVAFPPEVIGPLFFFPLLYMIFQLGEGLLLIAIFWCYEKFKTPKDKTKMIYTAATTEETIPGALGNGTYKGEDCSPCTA

[2] = system: NTCP-HEK293 cells; assay: Passive uptake in the absence of sodium
[3] = biological target: T1, human NTCP; assay: Inhibition of taurocholate uptake into NTCP-HEK293 cells; assay type: cell-based; conditions: for Inhibition of NTCP taurocholate uptake (in words): NTCP-HEK293 cells, 0-200 μM
[4] = biological target: T1, human NTCP; conditions: ref Dong et al., 2013, cited from earlier work
[5] = biological target: T1, human NTCP; assay: Inhibition of irbesartan or losartan uptake by taurocholate in NTCP-HEK293 cells; assay type: cell-based; conditions: substrates irbesartan or losartan

Pp (passive permeability) [2] | Normalized Jmax [1] | Kt ([1]; NTCP-HEK293 cells) | SMILES | NTCP substrate (in words) ([1]; NTCP-HEK293 cells) | other results
33.9 ± 3.3 cm/s ×10^6 |  |  | C[C@H](CCC(=O)O)[C@H]1CC[C@H]2[C@@H]3CC[C@@H]4C[C@H](O)CC[C@]4(C)[C@H]3CC[C@]12C [LCA, lithocholate] | indistinguishable uptake in the presence or absence of sodium; also recorded: not an apparent substrate | 
 | 0.508 ± 0.041 | 15.8 ± 2.7 µM | C[C@H](CCC(=O)NCC(=O)O)[C@H]1CC[C@H]2[C@@H]3[C@H](O)C[C@@H]4C[C@H](O)CC[C@]4(C)[C@H]3C[C@H](O)[C@]12C [GCA, glycocholate] |  | 
3.37 ± 0.63 cm/s ×10^6 | 0.495 ± 0.053 | 6.50 ± 1.87 µM | C[C@H](CCC(=O)NCCS(=O)(=O)O)[C@H]1CC[C@H]2[C@@H]3CC[C@@H]4C[C@H](O)CC[C@]4(C)[C@H]3CC[C@]12C [TLCA, taurolithocholate] |  | 
4.35 ± 0.70 cm/s ×10^6 | 0.621 ± 0.058 | 8.12 ± 1.20 µM | C[C@H](CCC(=O)NCCS(=O)(=O)O)[C@H]1CC[C@H]2[C@@H]3[C@H](O)C[C@@H]4C[C@H](O)CC[C@]4(C)[C@H]3CC[C@]12C [TCDCA, taurochenodeoxycholate] |  | 
26.3 ± 1.1 cm/s ×10^6 | 0.0511 ± 0.0093 | 1.55 µM | C[C@H](CCC(=O)O)[C@H]1CC[C@H]2[C@@H]3[C@@H](O)C[C@@H]4C[C@H](O)CC[C@]4(C)[C@H]3CC[C@]12C [UDCA, ursodeoxycholate] | substrates | Normalized Jmax, fold lower than that for taurocholate ([1]; versus taurocholate): 14 fold
 | 0.409 ± 0.038 | 9.53 µM | C[C@H](CCC(=O)NCCS(=O)(=O)O)[C@H]1CC[C@H]2[C@@H]3[C@@H](O)C[C@@H]4C[C@H](O)CC[C@]4(C)[C@H]3CC[C@]12C [TUDCA, tauroursodeoxycholate] |  | 

Further lines, the compound ahead of its results:

SMILES | Pp (passive permeability) [2] | Normalized Jmax [1] | Kt ([1]; NTCP-HEK293 cells) | NTCP substrate (in words) ([1]; NTCP-HEK293 cells) | other results
C[C@H](CCC(=O)O)[C@H]1CC[C@H]2[C@@H]3[C@H](O)C[C@@H]4C[C@H](O)CC[C@]4(C)[C@H]3CC[C@]12C [CDCA, chenodeoxycholate] | 27.6 ± 1.5 cm/s ×10^6 |  |  | indistinguishable uptake in the presence or absence of sodium; also recorded: no NTCP uptake | 
C[C@H](CCC(=O)NCC(=O)O)[C@H]1CC[C@H]2[C@@H]3[C@@H](O)C[C@@H]4C[C@H](O)CC[C@]4(C)[C@H]3CC[C@]12C [GUDCA, glycoursodeoxycholate] |  | 0.460 ± 0.143 |  |  | Ki [3]: 15 µM; Inhibition of NTCP taurocholate uptake (in words) [3]: reduced by GUDCA in a concentration-dependent manner
C[C@H](CCC(=O)NCC(=O)O)[C@H]1CC[C@H]2[C@@H]3CC[C@@H]4C[C@H](O)CC[C@]4(C)[C@H]3CC[C@]12C [GLCA, glycolithocholate] | 6.67 ± 0.95 cm/s ×10^6 | 0.384 ± 0.070 | 4.87 ± 3.49 µM |  | Ki [3]: ~5 µM; Ki ([3]; listed as Lithocholate Glycine): 7.29 µM
CCCCC1=NC2(CCCC2)C(=O)N1Cc1ccc(-c2ccccc2-c2nnn[nH]2)cc1 [Irbesartan] | 6.27 ± 0.14 cm/s ×10^6 | 0.172 ± 0.022 | 32.7 ± 5.9 µM | substrates of human NTCP | Jmax ([1]; maximal flux, NTCP-HEK293 cells): 0.430 ± 0.026 pmol/sec/cm^2; Jmax relative to taurocholate Jmax ([1]; versus taurocholate Jmax): about 20%; Previously identified as NTCP inhibitor (in words) [4]: previously identified as NTCP inhibitors
CC(C)[C@H](NC(=O)CC[C@@H](C)[C@H]1CC[C@H]2[C@@H]3[C@H](O)C[C@@H]4C[C@H](O)CC[C@]4(C)[C@H]3CC[C@]12C)C(=O)O [CDCA-L-Val-OH] | 1.47 ± 0.09 cm/s ×10^6 | 0.330 ± 0.031 | 9.62 ± 1.47 µM |  | 
CCCCc1nc(Cl)c(CO)n1Cc1ccc(-c2ccccc2-c2nn[nH]n2)cc1 [Losartan] | 1.48 ± 0.12 cm/s ×10^6 |  |  |  | 
C[C@H](CCC(=O)O)[C@H]1CC[C@H]2[C@@H]3C(=O)C[C@@H]4CC(=O)CC[C@]4(C)[C@H]3CC(=O)[C@]12C [DHCA, dehydrocholate] |  |  |  |  | Inhibition of NTCP taurocholate uptake (in words) [3]: not an inhibitor of NTCP
CC(C)c1nc(N(C)S(C)(=O)=O)nc(-c2ccc(F)cc2)c1/C=C/[C@@H](O)C[C@@H](O)CC(=O)O [Rosuvastatin] | 0.330 ± 0.006 cm/s ×10^6 |  |  |  | 
C[C@H](CCC(=O)NCCS(=O)(=O)O)[C@H]1CC[C@H]2[C@@H]3[C@H](O)C[C@@H]4C[C@H](O)CC[C@]4(C)[C@H]3C[C@H](O)[C@]12C [TCA, taurocholate] |  | 0.708 ± 0.057 | 19.8 ± 2.5 µM |  | Inhibition of irbesartan and losartan uptake (in words) [5]: inhibited irbesartan and losartan uptake in a concentration dependent fashion; Kt (NTCP taurocholate Michaelis-Menten constant) ([4]; used in Equation 1): 22.7(+3.4) μM
O=C1[C@H](CC[C@H](O)c2ccc(F)cc2)[C@@H](c2ccc(O)cc2)N1c1ccc(F)cc1 [Ezetimibe] |  |  |  | not to be NTCP substrates | Previously identified as NTCP inhibitor (in words) [4]: previously identified as NTCP inhibitors
C[C@H](CCC(=O)NCC(=O)O)[C@H]1CC[C@H]2[C@@H]3[C@H](O)C[C@@H]4C[C@H](O)CC[C@]4(C)[C@H]3CC[C@]12C [GCDCA, glycochenodeoxycholate] | 2.17 ± 0.32 cm/s ×10^6 | 0.726 ± 0.091 | 10.9 ± 1.8 µM |  | 
C[C@H](CCC(=O)N[C@@H](CCC(=O)OCc1ccccc1)C(=O)O)[C@H]1CC[C@H]2[C@@H]3[C@H](O)C[C@@H]4C[C@H](O)CC[C@]4(C)[C@H]3CC[C@]12C [CDCA-L-Glu-γ-Benzyl Ester] | 7.70 ± 0.23 cm/s ×10^6 | 0.233 ± 0.036 | 11.7 ± 4.3 µM |  | 
C[C@H](CCC(=O)O)[C@H]1CC[C@H]2[C@@H]3[C@H](O)C[C@@H]4C[C@H](O)CC[C@]4(C)[C@H]3C[C@H](O)[C@]12C [CA, cholate] | 4.56 ± 0.06 cm/s ×10^6 | 0.523 ± 0.081 | 54.9 µM | substrates | 
CC(C)OC(=O)C(C)(C)Oc1ccc(C(=O)c2ccc(Cl)cc2)cc1 [Fenofibrate] |  |  |  | not to be NTCP substrates | Previously identified as NTCP inhibitor (in words) [4]: previously observed them to be inhibitors
